This is an account of results in US10538571B2, “Compositions and methods for neurological diseases” (Coda Biotherapeutics, Inc., priority 2017, dated 2020).

The target of assay [1] is T1, engineered chimeric LGIC receptor SEQ ID NO:33 (α7-nAChR ligand binding domain with GlyRα1 Cys-loop, GlyRα1 ion pore domain) (Homo sapiens, UniProt P36544, F159M/H163T/I152M/R155K/V154L/W156N/Y151P).
T1 construct: expressed in transfected cells; host or cells: Xenopus oocytes (cDNA injection)
As to the kind of experiment: Two electrode voltage clamp currents in Xenopus oocytes expressing the receptor. It counts as cell-based. How it is done: (§1) For Xenopus oocyte studies, injections of cDNAs encoding for ion channels at a final concentration of 0.04 μg/μL were performed using a proprietary automated injection device and receptor expression examined at least two days later. Oocytes were poked with two electrodes and their membrane potential maintained at −80 mV throughout the experiment. All recordings were performed at 18° C. and cells were superfused with OR2 medium containing in mM: NaCl 82.5, KCl 2.5, HEPES 5, CaCl2.2H2O 1.8, MgCl2.6H2O 1, pH 7.4. Recordings progressed if oocytes had sufficiently low holding current, in which case they were then subjected to ligand or test compound application (5-10 s wash intervals), with 100 s of wash in between doses. Currents evoked by acetylcholine or other agonists were recorded using an automated process equipped with standard two electrode voltage clamp configuration (TEVC). Data were captured and analyzed using HiQScreen proprietary data acquisition and analysis software running under Matlab (Mathworks Inc.). Acetylcholine was prepared as a concentrated stock solution (10-1 M) in water and then diluted in the recording medium to obtain the desired test concentration. Nicotine was diluted in water as stock solution (10-1 M), kept frozen and diluted immediately prior to the experiment at the desired concentration. Compounds were prepared as stock solution (10-1M) in OR2 and then diluted in the recording medium to obtain the desired test concentration. Stock solution for Compound-1 was made in OR2 at pH 5 adjusted with HCl. To assess that dilution at the final concentration of this stock solution introduced no significant changes, the pH of the final solution was confirmed using a colorimetric assay (Galietta L. J. V., et al. 2001. FEBS Letters 499: 220-224. Kruger W., et al. (2005). Neuroscience Letters 380: 340-345.)
(§2) To better understand the impact of the heterologous domains that had been inserted into the channels, the ligand-dependent response profiles of wild type α7-nAChR and various engineered chimeric LGIC receptors to acetylcholine as well as to non-native ligands TC-6987, AZD-0328, and Facinicline/RG3487 were assessed. Receptors were transiently expressed in […] cells and currents were measured on an automated patch clamp system (Fluxion Biosciences) following 1 second addition of drug. Inclusion of a GlyRα1 Cys-loop sequence in the extracellular domain increased the potency of all small molecules on the engineered receptor (leftward shift in EC50) (e.g. SEQ ID NO:35, FIG. 4C vs SEQ ID NO:16, FIG. 4B). […] Inclusion of both the Cys-loop and β1-β2 loop sequences of GlyRα1 in the extracellular domain reduced the sensitivity by about 1 log from that observed with the full Cys-loop sequence alone, but further increased conductance approximately 2-fold and slowed the rate of deactivation of the channel (SEQ ID NO:41, FIG. 4E vs. SEQ ID NO:33, FIG. 4D).
A general note: In two-electrode clamp one electrode senses voltage and the other passes current.

The target in assay [2] is T2, engineered chimeric LGIC receptor SEQ ID NO:41 (as SEQ ID NO:33, further comprising the β1-β2 loop domain from GlyRα1) (Homo sapiens, UniProt P36544, F159M/H163T/I152M/K68T/N69T/Q70M/R155K/V154L/W156N/Y151P).
T2 construct: expressed in transfected cells; host or cells: Xenopus oocytes (cDNA injection)
The assay is described as above. It counts as cell-based. The conditions noted are these: FIG. 5. How it is done:
as §1, §2

The subject of assay [3] is spared nerve injury (SNI) model. As to the kind of experiment: Spared nerve injury (SNI) model of neuropathic pain, mechanical withdrawal threshold (von Frey, up-down method) after AAV.hSYN-α7-nAChR/GlyRα1 injection. It counts as in vivo, rat. The conditions noted are these: single IP injection. From the text: Eight expression cassettes are constructed using standard molecular biology techniques. All contain a human synapsin-1 (hSYN) promoter linked to engineered chimeric receptors comprising a ligand binding domain of α7-nAChR and a Cys-loop domain and ion pore domain of GlyRα1. Their design is as follows:
These cassettes are subcloned into AAV bacmids, purified, transfected into Sf9 insect cells to produce recombinant bacuvlovirus, and then amplified. Sf9 cells are double infected using the amplified recombinant baculovirus containing the hSYN-α7-nAChR/GlyRα1 cassettes and another recombinant baculovirus containing the Rep and AAV6(Y705+731F+T492V) Cap genes to produce recombinant AAV vectors. The viral vectors are purified, viral titer determined using qPCR, and SDS-PAGE used to verify the purity of AAV vectors.
To produce mechanical hypersensitivity in a model that mimics a neuropathic pain condition, the spared nerve injury (SNI) model (a validated model of mechanical allodynia) is used (Shields et al., 2003, The Journal of Pain, 4, 465-470). This model is produced by the sectioning of the common peroneal and the sural nerves and isolating the tibial branch. Mechanical withdrawal threshold is assessed by placing rats on an elevated wire-mesh grid and stimulating the plantar surface of the hind paw with von Frey filaments.
A dorsal hemilaminectomy is made at the level of the lumbar enlargement to expose two segments (about 1.5-2 mm) of lumbar spinal cord, after which the dura mater is incised and reflected. The viral solution is loaded into a glass micropipette (prefilled with mineral oil). The micropipette is connected to a manual micro-injector mounted on a stereotactic apparatus. The viral solution is targeted to the dorsal horn (left side). Along the rostro-caudal axis within the exposed region, 6 injections of 240 nl each are performed, in an equidistant linear fashion. After each injection, 1 min of resting time is observed and then the muscle layer is sutured, the skin closed with staples, and the animals were allowed to recover with heated-pad before they were returned to their home cages. Animals are perfused for histological analysis after the last behavior test.
The injection is performed with a borosilicate glass capillary (0.78/1 mm internal/external diameters) pulled to a fine point, attached by polyethylene tubing (0.4/0.8 mm internal/external diameters) to a syringe mounted in a microinjection pump. The needle is mounted on an extended arm of a stereotaxic frame swung to the outside (used to hold and manipulate the needle only). Tubing, syringe, and needle are all filled with water. One microliter air is taken up into the needle followed by 3 μL of the viral vector solution. The needle is loaded separately with this volume for each injection. Animals are anesthetized prior to surgery. Following an incision along the dorsal midline, the L4 and L5 DRG are exposed by removal of the lateral processes of the vertebrae. The epineurium lying over the DRG is opened, and the glass needle inserted into the ganglion, to a depth of 400 μm from the surface of the exposed ganglion. After a 3-minute delay to allow sealing of the tissue around the glass capillary tip, 1.1 μL virus solution was injected at a rate of 0.2 μL/minute. After a further delay of 2 minutes, the needle is removed. The L4 ganglion is injected first followed by the L5 ganglion. The muscles overlying the spinal cord are loosely sutured together with a 5-0 suture and the wound closed. Animals are allowed to recover at 37° C. and received postoperative analgesia.
Rats are first anesthetized and then placed vertically with their head fixed in a stereotaxic frame. An incision is made in the base of the neck to expose the groove in the nuchal crest. An incision is made (1-2 mm) in the cisternal membrane to a depth such that cerebrospinal fluid leaks out. […]

Molecules are shown by their SMILES.

T2 sequence (P36544 with tags, fused parts or gaps K68T/N69T/Q70M/Y151P/I152M/V154L/R155K/W156N/F159M/H163T): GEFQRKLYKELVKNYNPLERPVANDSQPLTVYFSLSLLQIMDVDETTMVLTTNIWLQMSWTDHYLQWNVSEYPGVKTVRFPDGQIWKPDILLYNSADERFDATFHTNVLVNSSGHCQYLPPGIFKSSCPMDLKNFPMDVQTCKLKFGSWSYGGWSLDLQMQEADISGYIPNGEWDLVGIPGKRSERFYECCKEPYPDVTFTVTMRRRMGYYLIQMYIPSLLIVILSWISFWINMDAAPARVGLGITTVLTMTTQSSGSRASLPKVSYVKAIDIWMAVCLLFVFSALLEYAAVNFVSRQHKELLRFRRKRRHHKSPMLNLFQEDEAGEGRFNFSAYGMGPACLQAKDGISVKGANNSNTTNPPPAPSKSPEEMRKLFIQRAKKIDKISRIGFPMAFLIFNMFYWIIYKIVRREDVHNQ
T1 sequence (P36544 with tags, fused parts or gaps Y151P/I152M/V154L/R155K/W156N/F159M/H163T): as the sequence (P36544 with tags, fused parts or gaps K68T/N69T/Q70M/Y151P/I152M/V154L/R155K/W156N/F159M/H163T) above, with T46K, T47N, M48Q counted along it

Take `c1ccc(-c2nnc(O[C@@H]3C4CC5C[C@H]3CN(C5)C4)s2)cc1` [ABT-126]: the “sensitivity of SEQ ID NO:33 to ligand compared with wild type α7-nAChR” value in assay [1] (Xenopus oocytes, FIG. 5) is “approximately as sensitive”. Further, the “sensitivity of SEQ ID NO:41 to ligand compared with wild type α7-nAChR” value in assay [2] is listed as “comparably sensitive”.
On to `O=C(N[C@@H]1CN2CCC1CC2)c1n[nH]c2ccccc12` [Facinicline/RG3487], for which the “reversal of mechanical hypersensitivity” value in assay [3] (high dose of ligand, all rats (Chimera 1-8)) is “complete reversal”; in assay [3] (low dose, rats receiving Chimera 1, 2, 4, 5, 6 and 8), “complete reversal”; in assay [3] (low dose, rats receiving Chimera 3 and 7) it was “partial reversal”. For the same compound, the “fold more sensitive than wild type α7-nAChR” value in assay [1] (Xenopus oocytes, FIG. 5) is about 10 fold. Besides, the “EC50 on SEQ ID NO:41 fold lower (left shifted) than for wild type” value in assay [2] is listed as “approximately 2 fold”. In assay [2], the “sensitivity of SEQ ID NO:41 compared with SEQ ID NO:33” value was “less sensitive”.
As to `O=C(N[C@@H]1C2CCN(CC2)[C@H]1Cc1cccnc1)c1cc(F)cc(F)c1` [TC-6987], in assay [1] (Xenopus oocytes, FIG. 5), the “sensitivity of SEQ ID NO:33 to ligand compared with wild type α7-nAChR” value was “approximately as sensitive”. In addition, the “agonist activity on SEQ ID NO:33” value in assay [1] (similar to wild type) is reported as “partial agonist activity”. The “sensitivity of SEQ ID NO:41 to ligand compared with wild type α7-nAChR” value in assay [2] was “comparably sensitive”.
As for `CN1CCCC1c1cccnc1` (stereo not shown) [nicotine], the “fold less sensitive than wild type α7-nAChR” value in assay [1] (Xenopus oocytes, FIG. 5) was “approximately 2 fold”. In assay [2], the “EC50 on SEQ ID NO:41 fold larger (right shifted) than for wild type” value is about 7 fold.
